System: cells
Test: Intracellular retention of nitroxides (FIG. 7)
Type: cell-based
Excerpt: The exponential life time (τ) is related to the half-life (t½): t½=0.693τ.
It is evident that nitroxide has a significant increase in retention time and approximately a 4-fold improvement over nitroxide and a 12 fold increase over nitroxide.

`CC1(C)CC(CN(CC(=O)O)CC(=O)O)C(C)(C)N1[O]` (stereo not drawn) [nitroxide [3], (2,2,5,5-tetramethylpyrrolidin-1-oxyl-3-ylmethyl)amine-N,N-diacetic acid] was tested. Which “intracellular retention life time (single-exponential fits), comparison in words” value (FIG. 7, nitroxides [1]-[3] compared) did it give?
The value was “longest life time within the cells”.

And the “intracellular retention time, improvement over nitroxide [2]” value (FIG. 7, retention within cells)?
Its value is about 4 fold.

And the “intracellular retention time, increase over nitroxide [1]” value (FIG. 7, retention within cells)?
Its value is about 12 fold.

From patent publication US10202342B2, “Targeted delivery of imaging probes for in vivo cellular imaging” (University of Maryland, Baltimore, priority 2008, dated 2019)
